Read-outs that look alike come from different tables or passages of the source.

Data on six molecules can be found in article PMC11489133, “Obicetrapib exhibits favorable physiochemical and pharmacokinetic properties compared to previous cholesteryl ester transfer protein inhibitors: An integrated summary of results from non‐human primate studies and clinical trials” (Pharmacology Research & Perspectives, 2024).

Data set [1] can be described thus: absorption, metabolism and excretion study of a single 10 mg dose of 14C-obicetrapib (NCT02408055, TA‐8995‐07). In kind it is in vivo, humans. The following applies: male, human, in vivo. As to the method: Figure 2 illustrates the obicetrapib (TA‐8995) M1 detected above the LLOQ (>1% radioactivity) in human plasma expressed as the percent radioactivity profiled. A study (NCT02408055) was conducted in healthy male participants (n = 6) to assess the absorption, metabolism, and excretion of a single dose of 10 mg of ^14C‐obicetrapib (TA‐8995‐07 CSR, NewAmsterdam Pharma). One of the objectives of the study was to determine the chemical structure of ^14C‐obicetrapib M1 that represent ≥10% of total radioactivity in plasma. The participants received 10 mL ^14C‐obicetrapib oral suspension, containing 10 mg and 100 μCi of ^14C‐obicetrapib in the fasted state. Clinical samples for analysis were selected based upon the levels of radioactivity present as determined by liquid scintillation counting and were stored at below −50°C (nominally −80°C) when not in use. Plasma samples from the participants were sequentially extracted with acetonitrile at five time points. The resulting extracts were concentrated by evaporation and reconstituted in mobile phase HPLC prior to analysis by radio‐HPLC. All samples were analyzed by liquid scintillation counting to evaluate the recovery of radioactivity. The profiles of the radiolabeled components in each sample of plasma were determined by HPLC analysis with off‐line radio‐detection. Selected samples from each matrix were then further analyzed by high‐resolution mass spectrometry to investigate the identity of M1. In plasma, the predominant metabolite component was unchanged obicetrapib (~79% of total drug‐related exposure), and the most abundant plasma M1 were M1 and P9 of which each accounted for ~4% of total exposure (Figure 2). No significant differences in the metabolite profiles were observed across the samples obtained from the six participants (TA‐8995‐07 CSR, NewAmsterdam Pharma).

Details of data set [2]: method as in PMID 28847206. To be noted: added to high‐intensity statin therapy, compared to placebo; cited from earlier work.
The conditions of data set [3]: cited from earlier work.
The conditions of data set [4]: cited from earlier work. This is another data set of the same source.
The conditions of data set [5]: cited from earlier work. This is another data set of the same source.
The conditions of data set [6]: pH 7.4; cited from earlier work.

In the case of `CCC1CC(N(Cc2cc(C(F)(F)F)cc(C(F)(F)F)c2)c2ncc(OCCCC(=O)O)cn2)c2cc(C(F)(F)F)ccc2N1` (stereo not drawn) [M1], the “percent radioactivity profiled in human plasma” value in data set [1] is reported as “approx. 4%”.

Consider `O=C(O)COc1cnc(NCc2cc(C(F)(F)F)cc(C(F)(F)F)c2)nc1` [P9], for which, in data set [1], the “percent radioactivity profiled in human plasma” value is on record as “approx. 4%”.

With `COc1cc(F)c(C(C)C)cc1-c1ccc(C(F)(F)F)cc1CN1C(=O)O[C@H](c2cc(C(F)(F)F)cc(C(F)(F)F)c2)[C@@H]1C` [anacetrapib, Anacetrapib], the “reduced risk of major adverse coronary events” value in data set [2] was 9%. Moreover, the PSA in data set [3] is on record as 39 Å^2. Also, the “time detected in plasma after the last treatment dose” value in data set [4] (76‐week DEFINE trial) is on record as “up to 4 years”. In addition, in data set [4] (human, in vivo), the “half‐life” value is recorded as “up to 80 h”. For the same molecule, the “accumulation in adipose tissue” value in data set [4] (subcutaneous adipose biopsy measurements, compared to plasma levels) was “accumulated in adipose tissue at much higher concentrations and for a prolonged period”. Besides, in data set [5] (in vivo), the “increase in plasma levels, fed versus fasted state” value was 2-8 fold; the “increase of AUC (0‐∞) by a high‐fat meal compared to a fasting state” value is given as 6 fold; the “increase of C max by a high‐fat meal compared to a fasting state” value is given as 8 fold. For the same molecule, the cLogDpH7.4 in data set [6] was 9.2.

Regarding `CCC(CC)CC1(C(=O)Nc2ccccc2SC(=O)C(C)C)CCCCC1` [dalcetrapib, Dalcetrapib], in data set [3], the PSA is 46 Å^2. Besides, in data set [4] (once daily doses between 300 and 1200 mg, short‐term investigations), the “t 1/2” value is 30 h. Besides, the “accumulation in adipose tissue” value in data set [4] (other CETP inhibitors) is recorded as “no accumulation in adipose tissue”. Further, in data set [5], the “increase of AUC(0–36) by a high‐fat meal compared to fasting conditions” value is 1.6 fold and the “increase of C max by a high‐fat meal compared to fasting conditions” value was 2.3 fold. Also, in data set [6], the cLogDpH7.4 was 7.2.

Regarding `Cc1cc(C)c2c(c1)[C@@H](N(Cc1cc(C(F)(F)F)cc(C(F)(F)F)c1)c1nnn(C)n1)CCCN2C[C@H]1CC[C@H](C(=O)O)CC1` [evacetrapib, Evacetrapib], in data set [3], the PSA is recorded as 87 Å^2. Besides, the “accumulation in adipose tissue” value in data set [4] (human, in vivo) is “no accumulation in adipose tissue”. Also, in data set [4] (once daily doses between 10 and 600 mg for up to 15 days), the “t 1/2” value was 40 h. Moreover, in data set [5], the “increase of AUC(τ) by a high‐fat meal compared to fasting conditions” value is on record as 1.4 fold and the “increase of C max by a high‐fat meal compared to fasting conditions” value is given as 1.5 fold. For the same molecule, the cLogDpH7.4 in data set [6] is 7.9.

For `CCOC(=O)N1c2ccc(C(F)(F)F)cc2[C@@H](N(Cc2cc(C(F)(F)F)cc(C(F)(F)F)c2)C(=O)OC)C[C@H]1CC` [torcetrapib, Torcetrapib], in data set [3], the PSA is reported as 59 Å^2. The “accumulation in adipose tissue” value in data set [4] (human, in vivo) is given as “no accumulation in adipose tissue”. The “t 1/2” value in data set [4] (single ascending dose study) was 211 h. Besides, the cLogDpH7.4 in data set [6] is reported as 7.6.
